This note sets out measurements from patent publication US20250281483A1, “TRANSCRIPTION FACTOR EB ACTIVATORS AND USES THEREOF” (Astellas Engineered Small Molecules US, Incorporated, priority 2022, published 2025).

One data set addresses T1, TFEB (Homo sapiens, UniProt P19484).
T1 sequence (P19484 1-476): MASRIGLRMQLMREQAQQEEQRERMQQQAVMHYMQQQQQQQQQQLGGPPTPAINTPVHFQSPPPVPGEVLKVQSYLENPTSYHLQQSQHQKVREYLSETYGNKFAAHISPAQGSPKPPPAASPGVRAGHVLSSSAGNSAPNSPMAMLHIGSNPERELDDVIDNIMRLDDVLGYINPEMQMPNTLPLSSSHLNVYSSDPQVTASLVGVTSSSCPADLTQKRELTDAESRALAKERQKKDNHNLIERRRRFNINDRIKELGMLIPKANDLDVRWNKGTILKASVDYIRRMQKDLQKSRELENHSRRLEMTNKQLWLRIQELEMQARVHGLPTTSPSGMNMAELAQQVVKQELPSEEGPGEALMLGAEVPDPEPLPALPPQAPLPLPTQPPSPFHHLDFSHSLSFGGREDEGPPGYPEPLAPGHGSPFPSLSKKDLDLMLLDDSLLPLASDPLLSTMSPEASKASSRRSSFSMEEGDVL
The experiment in a line: Tfeb-Translocation Assay HEK-293T-oEX-Tfeb-GFP Cell Line. The format is cell-based. The note with it: HEK-293T-oEX-TFEB-GFP cells; translocation positive cells ratio; read-out: TFEB Translocation EC50. In a few lines: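 HEK-293T cells overexpressing Tfeb-GFP were treated for 6 or 18 h at 37 °C with 10-point 3- or 2-fold dilutions from 50 µM (Torin 1 reference from 300 nM), then PFA-fixed and Hoechst-stained. Cells with nuclear/perinuclear EGFP ratio 1.2 among EGFP-positive cells were scored as translocation-positive; DMSO set to ~15% for normalization.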

Data set [1] in a line: In Vitro Liver Microsomes Metabolic Stability Assay, human. It counts as in vitro ADME. As to conditions: human liver microsomes 0.5 mg/mL, 1 μM compound, NADPH, 0 and 30 min; scale-up CLint; read-out: CLint, Human LM. As to the method:
(§1) In Vitro Liver Microsomes Metabolic Stability Assay of Different Species
(§2) 1. The liver microsomes were stored at −80° C. prior to use.
(§3) 2. The master solution was prepared according to Table 3.
(§4) 3. 40 μL of 10 mM NADPH solution was added to each well. The final concentrations of NADPH was 1 mM. The mixture was pre-warmed at 37° C. for 5 minutes. The negative control samples were prepared by replacing NADPH solutions with 40 μL of ultra-pure H2O. The negative control was used to exclude the misleading factor that resulted from instability of chemical itself. Samples with NADPH were prepared in duplicate. Negative controls were prepared in singlet.
(§5) 4. The reaction was started with the addition of 2 μL of 200 μM control compound or test compound solutions. Verapamil was used as positive control in this study. The final concentration of test compound or control compound was 1 μM.
(§6) 5. Aliquots of 50 μL were taken from the reaction solution at 0 and 30 minutes. The reaction was stopped by the addition of 4 volumes of cold acetonitrile with Internal Standard (100 nM alprazolam, 200 nM imipramine, 200 nM labetalol and 2 μM ketoprofen). Samples were centrifuged at 3, 220 g for 40 minutes. Aliquot of 90 μL of the supernatant was mixed with 90 μL of ultra-pure H2O and then used for LC-MS/MS analysis.
(§7) Peak areas were determined from extracted ion chromatograms. The slope value, k, was determined by linear regression of the natural logarithm of the remaining percentage of the parent drug vs. incubation time curve.
(§8) The in vitro half-life (in vitro t1/2) was determined from the slope value:
(§9) Conversion of the in vitro t1/2 (min) into the in vitro intrinsic clearance (in vitro CLint, in μL/min/mg protein) was done using the following equation (mean of duplicate determinations): […]
(§10) Conversion of the in vitro t1/2 (min) into the scale-up unbound intrinsic clearance (Scale-up CLint, in mL/min/kg) was done using the following equation (mean of duplicate determinations): […]
(Liver microsomes are vesicles of endoplasmic reticulum, rich in cytochrome P450 enzymes.)

Data set [2] in a line: In Vitro Liver Microsomes Metabolic Stability Assay, rat. The format is in vitro ADME. As to conditions: rat liver microsomes 0.5 mg/mL, 1 μM compound, NADPH, 0 and 30 min; scale-up CLint; read-out: CLint, Rat LM. The method, then: as §1, §2, §3, §4, §5, §6, §7, §8, §9, §10
A short description of data set [3]: In Vitro Liver Microsomes Metabolic Stability Assay, mouse. It counts as in vitro ADME. The note with it: mouse liver microsomes 0.5 mg/mL, 1 μM compound, NADPH, 0 and 30 min; scale-up CLint; read-out: CLint, Mouse LM. As to the method:
as §1, §2, §3, §4, §5, §6, §7, §8, §9, §10

For orientation: EC50 means the midpoint of the concentration-response curve. Consider `Cc1ccc(CNC(=O)c2cc3c(=O)n(Cc4ccccc4)ccc3nc2C)o1` [Example 1, 6-benzyl-2-methyl-N-((5-methylfuran-2-yl)methyl)-5-oxo-5,6-dihydro-1,6-naphthyridine-3-carboxamide], for which the EC50 at TFEB was less than 100 nM. Moreover, the CLint scaled at 1 μM in data set [1] worked out at 57 mL/min/kg; in data set [2], 319 mL/min/kg; in data set [3] it was 760 mL/min/kg.
The like results for `Cc1cccc(CNC(=O)c2cc3c(=O)n(Cc4ccccc4)ccc3nc2C)c1` [Example 5, 6-benzyl-2-methyl-N-(3-methylbenzyl)-5-oxo-5,6-dihydro-1,6-naphthyridine-3-carboxamide] were, in that order, 100 to 1000 nM, 171 mL/min/kg, 1040 mL/min/kg and 1800 mL/min/kg.
The like results for `Cc1cccc(CNC(=O)c2cc3c(=O)n(Cc4ccccc4)ccc3nc2C)n1` [Example 6, 6-benzyl-2-methyl-N-((6-methylpyridin-2-yl)methyl)-5-oxo-5,6-dihydro-1,6-naphthyridine-3-carboxamide] were, in that order, 100 to 1000 nM, 16 mL/min/kg, 217 mL/min/kg and 414 mL/min/kg.
Take `Cc1nc2ccn(Cc3ccccc3)c(=O)c2cc1C(=O)NCc1ccccn1` [Example 7, 6-benzyl-2-methyl-5-oxo-N-(pyridin-2-ylmethyl)-5,6-dihydro-1,6-naphthyridine-3-carboxamide]: the EC50 on TFEB fell in the range of 100 to 1000 nM. Further, the values for the CLint scaled at 1 μM in data set [1], in data set [2] and in data set [3] were 2 mL/min/kg, 28 mL/min/kg and 91 mL/min/kg, respectively.
As to `Cc1nc2ccn(Cc3ccco3)c(=O)c2cc1C(=O)NCC1CCC(Cl)CC1` (centres unmarked) [Comparator 2, reference compound], the CLint scaled at 1 μM in data set [1] came out at 77 mL/min/kg; in data set [2], 318 mL/min/kg; in data set [3], 939 mL/min/kg.
For the molecule `Cc1nc(CNC(=O)c2cc3c(=O)n(Cc4ccccc4)ccc3nc2C)co1` [Example 18, 6-benzyl-2-methyl-N-((2-methyloxazol-4-yl)methyl)-5-oxo-5,6-dihydro-1,6-naphthyridine-3-carboxamide], at TFEB, the EC50 was in the range of 100 to 1000 nM. In addition, the CLint scaled at 1 μM in data set [1] was found to be 4 mL/min/kg; in data set [2] it was 73 mL/min/kg; in data set [3], 140 mL/min/kg.
The like results for `Cc1nc2ccn(Cc3ccccc3)c(=O)c2cc1C(=O)NCc1cc(F)c(F)cn1` [Example 50, 6-benzyl-N-((4,5-difluoropyridin-2-yl)methyl)-2-methyl-5-oxo-5,6-dihydro-1,6-naphthyridine-3-carboxamide] were, in that order, less than 100 nM, 3 mL/min/kg, 70 mL/min/kg and 124 mL/min/kg.
The like results for `Cc1nc2ccn(Cc3ccccc3)c(=O)c2cc1C(=O)NCc1ccccc1` [Example 17, N,6-dibenzyl-2-methyl-5-oxo-5,6-dihydro-1,6-naphthyridine-3-carboxamide] were, in that order, 100 to 1000 nM, 15 mL/min/kg, 163 mL/min/kg and 470 mL/min/kg.
Take `Cc1nc2ccn(Cc3ccc(Cl)cc3)c(=O)c2cc1C(=O)NCc1ccccn1` [Example 31, 6-(4-chlorobenzyl)-2-methyl-5-oxo-N-(pyridin-2-ylmethyl)-5,6-dihydro-1,6-naphthyridine-3-carboxamide]: the EC50 on TFEB is less than 100 nM. The CLint scaled at 1 μM in data set [1] was determined as 1 mL/min/kg; in data set [2], 55 mL/min/kg; in data set [3] it was 132 mL/min/kg.
